The record followed here is ChEMBL document CHEMBL5523694, “Research progress on small molecule inhibitors targeting KRAS G12C with acrylamide structure and the strategies for solving KRAS inhibitor resistance” (Bioorg Med Chem, 2024).

Molecules are shown by their SMILES.

In data set [1] the test system is GTPase KRas (Homo sapiens), P01116 [G12C]. The data set is described as follows: Inhibition of KRAS G12C mutant (unknown origin). Particulars: concentration not given here.
For data set [2] the test system is unchanged. In words: Binding affinity to KRAS G12C mutant (unknown origin) measured after 3 mins.
Data set [3] can be described thus: Stability in monkey whole blood assessed as half life by LC/MS/MS analysis. It counts as ADME, tissue-based, Macaca mulatta. Particulars: rhesus monkey.
Data set [4] in a line: Stability in dog whole blood assessed as half life by LC/MS/MS analysis. It counts as ADME, tissue-based, Canis lupus familiaris.
For data set [5], the system named is NCI-H358. The data set is described as follows: Antitumor activity against human NCI-H358 cells xenografted in Balb/c nude mouse assessed as tumor growth inhibition at 15 mg/kg measured after 27 days by vernier caliper based assay relative to control. As to conditions: NCI-H358, 648 h, time 27 day, read-out: TGI. The data set is classed as functional. (In general: Xenograft models place foreign cells or tissue in a host animal.)

Another data set concerns MIA PaCa-2. In words: Antiproliferative activity against human MIA PaCa-2 cells harbouring KRAS G12C mutant by CellTiter-Glo assay. It counts as functional, cell-based. Background: Cellular ATP, detected with luciferase, serves as a proxy for viable cell number.
Data set [6] deals with NCI-H358. The data set is described as follows: Antiproliferative activity against human NCI-H358 cells harbouring KRAS G12C mutant by CellTiter-Glo assay. The data set is classed as functional, cell-based.
Another data set deals with A-375. The data set is described as follows: Antiproliferative activity against human A-375 cells by CellTiter-Glo assay. The data set is classed as functional, cell-based.
Data set [7] addresses T1, GTPase KRas (Homo sapiens, UniProt P01116, G12C). In words: Inhibition of KRAS G12C mutant in human MIA PaCa-2 cells measured after 6 hrs. The data set is classed as cell-based.
For data set [8], the target named is T1, GTPase KRas. The data set is described as follows: Inhibition of KRAS G12C mutant in human NCI-H358 cells measured after 6 hrs. It counts as cell-based.
The subject of data set [9] is GTPase KRas (Homo sapiens), P01116 [G12C]. In words: Inhibition of KRAS G12C mutant (unknown origin) at 10 uM relative to control.
For data set [10] the test system is unchanged. The data set is described as follows: Inhibition of his tagged KRAS G12C mutant (1 to 169 residues) (unknown origin) by RapidFire mass spectrometric analysis. As to conditions: concentration not given here.
The target of data set [11] is T1, GTPase KRas. In words: Inhibition of KRAS G12C mutant in human NCI-H2030 cells. The data set is classed as cell-based.
Data set [12] concerns the target T2, von Hippel-Lindau disease tumor suppressor/GTPase KRas (Homo sapiens, UniProt P01116+P40337, G12C). In words: PROTAC activity at VHL/KRAS G12C mutant in human NCI-H2030 cells assessed as induction of KRAS G12C degradation. It counts as cell-based.
The target of data set [13] is T2, von Hippel-Lindau disease tumor suppressor/GTPase KRas. The data set is described as follows: PROTAC activity at VHL/KRAS G12C mutant in human NCI-H23 cells assessed as induction of KRAS G12C degradation. The data set is classed as cell-based.
In data set [14] the test system is von Hippel-Lindau disease tumor suppressor/GTPase KRas (Homo sapiens), P01116+P40337 [G12C]. The data set is described as follows: PROTAC activity at VHL/KRAS G12C mutant in human NCI-H2030 cells assessed as induction of KRAS G12C degradation relative to control. It counts as cell-based.
Data set [15] has the same test system. The data set is described as follows: PROTAC activity at VHL/KRAS G12C mutant in human NCI-H23 cells assessed as induction of KRAS G12C degradation relative to control. It counts as cell-based.
For data set [16], the target named is T1, GTPase KRas. The data set is described as follows: Inhibition of KRAS G12C mutant in human NCI-H23 cells. It counts as cell-based.
The subject of data set [17] is GTPase KRas (Homo sapiens), P01116 [G12C]. The data set is described as follows: Inhibition of KRAS G12C mutant (1 to 169 residues) (unknown origin) at 5 uM incubated for 1 min by Mass spectrometry reactivity assay.
Data set [18] concerns NCI-H358. The data set is described as follows: Antitumor activity against human NCI-H358 cells xenografted in Balb/c nude mouse assessed as tumor growth inhibition at 5 mg/kg measured after 27 days by vernier caliper based assay relative to control. It counts as functional. Particulars: NCI-H358, 648 h, time 27 day, read-out: TGI.
Data set [19] addresses T1, GTPase KRas. The data set is described as follows: Inhibition of KRAS G12C mutant (unknown origin) by HTRF method. For orientation: In TR-FRET formats the signal depends on donor and acceptor labels being close together.
In data set [20] the target is T1, GTPase KRas. In words: Inhibition of KRAS G12C mutant in human HCC1171 cells. The data set is classed as cell-based.
Data set [21] deals with GTPase KRas (Homo sapiens), P01116 [G12C]. The data set is described as follows: Inhibition of KRAS G12C mutant (unknown origin) at 5 uM relative to control.

As a reminder, the inhibition is how much of the control response was suppressed. On to `C=CC(=O)N1CCN(c2nc(OCCN3CCCC3=O)nc3c(F)c(-c4c(O)cccc4F)c(Cl)cc23)CC1`, for which the inhibition in data set [1] was > 90%.

The term half-life denotes the time needed for the level to fall by half in the phase considered. On to `C=CC(=O)N1CCN(c2nc(OCCN3CC(F)(F)C3)nc3c(F)c(-c4c(O)cccc4F)c(Cl)cc23)CC1`, for which the Activity in data set [2] is > 90%. Also, the half-life was 7.8 h in [3] and 3 h in [4].

On to `C=CC(=O)N1CCN(c2ncnc3c(F)c(-c4c(O)cccc4F)c(Cl)cc23)CC1`, for which the inhibition in vivo at 15 mg/kg in the data set with NCI-H358 [5] stood at 52%.

Usually IC50 stands for the concentration that inhibits the measured activity by half. As for `C=CC(=O)N1CCN(c2ncnc3c(=O)n(-c4c(O)cccc4F)c(C(F)(F)F)cc23)CC1`, the half-maximal inhibitory concentration (IC50) was 6480 nM in the data set on MIA PaCa-2, 5360 nM in the data set on NCI-H358 [6] and > 50000 nM in the data set with A-375.

With `C=CC(=O)N1CCN(c2nc(N3CC(N(C)C)C3)nc3c2C[C@@H](C)[C@H](c2c(Cl)c(C)cc4[nH]ccc24)C3)C[C@H]1C`, the results for the IC50 on GTPase KRas [7] and against GTPase KRas [8] were 60 nM and 64 nM, respectively. The molecule further registered an inhibition in [9] of 80%.

On to `C=CC(=O)N1CCN(c2c3c(nc4c(F)c(-c5c(O)cccc5F)c(Cl)cc24)NC(=O)NC3)CC1`, for which the inhibition in data set [10] was > 50%.

Usually EC50 stands for the concentration that produces a half-maximal response. As a reminder, the DC50 is the concentration giving 50% degradation. As a reminder, the Emax is the greatest response seen or fitted, relative to the assay's reference. As to `C=C(F)C(=O)N1CCN(c2nc(CO[C@@H]3CCCN3CCCOCCC(=O)N[C@@H](C(=O)C3N[C@H](C(=O)NCc4ccc(-c5scnc5C)cc4)C[C@H]3O)C(C)(C)C)nc3c2CCN(c2cccc4cccc(Cl)c24)C3)C[C@@H]1CC#N` (stereo partly drawn), the 50% effective concentration (EC50) at GTPase KRas [11] is 3800 nM; at GTPase KRas [16] it was 2900 nM. Also, the DC50 was 590 nM in data set [12] and 760 nM in data set [13]. The Emax amounted to 75% in data set [14] and 90% in [15].

As for `C=CC(=O)N1CCN(c2nc(O[C@@H]3CN(C)C[C@H]3OC)nc3c(Oc4c(Cl)c(Cl)cc5[nH]ncc45)nc(Cl)cc23)CC1`, in data set [17], the inhibition worked out at 82%.

Consider `C=CC(=O)N1CCN(c2ncnc3c(=O)n(-c4c(N)c(Cl)cc(Cl)c4F)c(C(F)(F)F)cc23)CC1`, for which the inhibition in vivo at 15 mg/kg with NCI-H358 [5] came to 116%. Further, the IC50 in the data set with MIA PaCa-2 came to 70000 nM; with A-375 it was 7320 nM. In addition, in the data set with NCI-H358 [18], the inhibition in vivo at 5 mg/kg was found to be 107%.

As to `C=C(F)C(=O)N1CCN(c2nc(CO[C@@H]3CCCN3CCC(=O)NCCOCCOCCC(=O)N[C@@H](C(=O)N3[C@H](O)CC[C@H]3C(=O)NCc3ccc(-c4scnc4C)cc3)C(C)(C)C)nc3c2CCN(c2cccc4cccc(Cl)c24)C3)C[C@@H]1CC#N`, the results for the EC50 at GTPase KRas [11] and on GTPase KRas [16] were > 10000 nM and 1300 nM, respectively. Further, the Emax in [14] came to 30%.

`C=CC(=O)N1C[C@H](C)N(c2nc(N3CC(N(C)C)C3)nc3c(F)c(-c4c(C)ccc5cn[nH]c45)c(Cl)cc23)C[C@H]1C`: the Activity in data set [2] was > 90%. The figures for the half-life in data set [3] and in data set [4] were 3.9 h and 5.95 h, respectively.

With `C=CC(=O)N1CCN(c2nc(OC[C@@H]3CCCN3C)nc3c2C[C@@H](C)C(c2cc(O)cc4ccccc24)C3)[C@@H](C)C1` (stereo partly drawn), the IC50 against GTPase KRas [19] is < 10 nM; on GTPase KRas [20], < 6 nM.

In the case of `C=CC(=O)N1CCN(c2nc(N3CC(N(C)C)C3)nc3c2C[C@@H](C)C(c2c(C)c(Cl)cc4[nH]ncc24)C3)CC1` (stereo partly drawn), the half-inhibitory concentration (IC50) at GTPase KRas [7] turned out to be 68 nM; against GTPase KRas [8] it was 102 nM. In [21], this molecule displayed an inhibition of 78%.

Consider `C=CC(=O)N1C[C@H](C)N(c2nc(OCCN3CC(F)(F)C3)nc3c(F)c(-c4c(O)cccc4F)c(Cl)cc23)C[C@H]1C`, for which, in data set [2], the Activity was > 90%. Also, the half-life in data set [3] is 7.8 h; in data set [4], 3 h.

Consider `C=CC(=O)N1CCN(c2nc(Oc3cccc4c3CCN(C)C4)nc3c(Oc4c(Cl)c(F)cc5[nH]ncc45)nccc23)CC1`, for which, in data set [17], the inhibition is 80%.
